Data from patent US20240360114A1 (SIRONAX LTD., priority 2021, published 2024).

System: HT-1080 cells
Assay: HT-1080 cell viability assay (ferroptosis induced by RSL3, Cell Titer-Glo)
Format: cell-based
Conditions: Homo sapiens, HT-1080, 20 h, ferroptosis inducer RSL3, 20 hours, ferroptosis inhibitory activity, Table 2
How it was run: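 Cells seeded overnight, then co-treated with RSL3 and compound (3-fold, 10-point dilution, top 1.1 μM) for 20 hours. Viability by CellTiter-Glo luminescence, normalized to untreated controls; EC50 from sigmoidal non-linear regression.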

Structure (SMILES) | EC50
CC(C)(C)c1ccc(NC2CCC(N)C2)cc1 (centres unmarked) [Compound 124, N1-(4-(tert-butyl)phenyl)cyclopentane-1,3-diamine] | 0.1 to 1 µM
NCC1CCC(Nc2ccc(C(F)(F)F)cc2)CC1 (centres unmarked) [Compound 88, N-(4-(aminomethyl)cyclohexyl)-4-(trifluoromethyl)aniline] | 1 to 10 µM
NC1CCC(Nc2ccc(Br)cc2)CC1 (centres unmarked) [Compound 165, N1-(4-bromophenyl)cyclohexane-1,4-diamine] | 1 to 10 µM
CC1(C)CCC(c2ccc(NC3CCC(N)(CO)CC3)cc2)CC1 (centres unmarked) [Compound 275A] | 0.0001 to 0.1 µM
CC(C)(C)c1ccc(NC2CCC(CCCN)CC2)cc1 (centres unmarked) [Compound 287, N-(4-(3-aminopropyl)cyclohexyl)-4-(tert-butyl)aniline] | 0.0001 to 0.1 µM
CC(C)(C)c1ccc(NC2CCC(NC(=O)C3CNC(=O)C3)CC2)cc1 (single isomer, unassigned) [Compound 114A, N-(4-((4-(tert-butyl)phenyl)amino)cyclohexyl)-5-oxopyrrolidine-3-carboxamide] | 0.1 to 1 µM
NC1CCC(Nc2ccc(N3CCC(C(F)(F)F)CC3)c(Cl)c2)CC1 (centres unmarked) [Compound 67, N1-(3-chloro-4-(4-(trifluoromethyl)piperidin-1-yl)phenyl)cyclohexane-1,4-diamine] | 0.0001 to 0.1 µM
Cc1cc(N2CCC(C(F)(F)F)CC2)c(F)cc1NC1CCC(N)CC1 (centres unmarked) [Compound 58, N1-(5-fluoro-2-methyl-4-(4-(trifluoromethyl)piperidin-1-yl)phenyl)cyclohexane-1,4-diamine] | 0.0001 to 0.1 µM
Cc1c(NC2CCC(N)CC2)ccc(N2CCC(C(F)(F)F)CC2)c1F (centres unmarked) [Compound 57, N1-(3-fluoro-2-methyl-4-(4-(trifluoromethyl)piperidin-1-yl)phenyl)cyclohexane-1,4-diamine] | 0.0001 to 0.1 µM
CNCC1CCC(Nc2ccc(C3CCC(C)(C)CC3)cc2)CC1 (centres unmarked) [Compound 86, 4-(4,4-dimethylcyclohexyl)-N-(4-((methylamino)methyl)cyclohexyl)aniline] | 0.0001 to 0.1 µM
NC1CCC(Nc2ccc(N3CCC(C(F)(F)F)CC3)c(F)c2)CC1 (centres unmarked) [Compound 68, N1-(3-fluoro-4-(4-(trifluoromethyl)piperidin-1-yl)phenyl)cyclohexane-1,4-diamine] | 0.0001 to 0.1 µM
c1cc(C2CCCCC2)ccc1NC1CNC1 [Compound 109, N-(4-cyclohexylphenyl)azetidin-3-amine] | 0.1 to 1 µM
CC1CCC(Nc2ccc(C3CCCCC3)cc2)CC1 (centres unmarked) [Compound 269, 4-cyclohexyl-N-(4-methylcyclohexyl)aniline] | 0.1 to 1 µM
NCCOc1cc(NC2CCC(N)CC2)ccc1N1CCC(C(F)(F)F)CC1 (centres unmarked) [Compound 41A, N1-(3-(2-aminoethoxy)-4-(4-(trifluoromethyl)piperidin-1-yl)phenyl)cyclohexane-1,4-diamine] | 0.1 to 1 µM
CC1(C)CCC(c2ccc(NCCCCN3CCCC3)cc2)CC1 [Compound 105, 4-(4,4-dimethylcyclohexyl)-N-(4-(pyrrolidin-1-yl)butyl)aniline] | 0.0001 to 0.1 µM
NC1CCC(Nc2cccnc2)CC1 (centres unmarked) [Compound 163, N1-(pyridin-3-yl)cyclohexane-1,4-diamine] | 1 to 10 µM
Cc1nc(N2C3CCC2COC3)ccc1NC1CC2(CC(N)C2)C1 (centres unmarked) [Compound 528, N2-(6-(3-oxa-8-azabicyclo[3.2.1]octan-8-yl)-2-methylpyridin-3-yl)spiro[3.3]heptane-2,6-diamine] | 0.1 to 1 µM

Second part, the compound after the results:

EC50 | Structure (SMILES)
0.1 to 1 µM | CCOCC(C)(C)c1ccc(NC2CCC(N)CC2)cc1 (centres unmarked) [Compound 320A, N1-(4-(1-ethoxy-2-methylpropan-2-yl)phenyl)cyclohexane-1,4-diamine]
0.1 to 1 µM | Cc1cc(NC2CC3(CC(N)C3)C2)cnc1N1C[C@H](C)O[C@@H](C)C1 (stereo in doubt) [Compound 480, N2-(6-((25,6S)-2,6-dimethylmorpholino)-5-methylpyridin-3-yl)spiro[3.3]heptane-2,6-diamine]
0.0001 to 0.1 µM | Cc1nc(N2CC3CCC(C2)O3)ccc1NC1CC2(CC(N)C2)C1 (centres unmarked) [Compound 486, N2-(6-(8-oxa-3-azabicyclo[3.2.1]octan-3-yl)-2-methylpyridin-3-yl)spiro[3.3]heptane-2,6-diamine]
0.0001 to 0.1 µM | Cc1cc(N2CCCCC2)ccc1NC1CC2(CC(N)C2)C1 (centres unmarked) [Compound 380, N2-(2-methyl-4-(piperidin-1-yl)phenyl)spiro[3.3]heptane-2,6-diamine]
0.0001 to 0.1 µM | CC1CN(c2ccc(NC[C@H]3CC[C@H](N)CC3)c(F)c2)CC(C)O1 (some centres unmarked) [Compound 431, N-(((1r,4r)-4-aminocyclohexyl)methyl)-4-(2,6-dimethylmorpholino)-2-fluoroaniline]
0.0001 to 0.1 µM | Cc1cc(N2CC(C)OC(C)C2)c(F)cc1NC[C@H]1CC[C@H](N)CC1 (some centres unmarked) [Compound 432, N-(((1r,4r)-4-aminocyclohexyl)methyl)-4-(2,6-dimethylmorpholino)-5-fluoro-2-methylaniline]
0.1 to 1 µM | CC[C@@H]1CN(c2ccc(NC3CCC(N)CC3)c(C)n2)C[C@H](C)O1 (stereo partly drawn) [Compound 551, N1-(6-((2R,6S)-2-ethyl-6-methylmorpholino)-2-methylpyridin-3-yl)cyclohexane-1,4-diamine]
0.0001 to 0.1 µM | Cc1c(NC[C@H]2CC[C@H](N)CC2)ccc(N2CC(C)OC(C)C2)c1C (some centres unmarked) [Compound 452, N-(((1r,4r)-4-aminocyclohexyl)methyl)-4-(2,6-dimethylmorpholino)-2,3-dimethylaniline]
0.0001 to 0.1 µM | Cc1nc(N2CC(C)OC(C)C2)ccc1NC1C2CC3CC1CC(CN)(C3)C2 (centres unmarked) [Compound 475A, N-(5-(aminomethyl)adamantan-2-yl)-6-(2,6-dimethylmorpholino)-2-methylpyridin-3-amine]
0.0001 to 0.1 µM | Cc1cc(NC2CCCCC2C(N)=O)ccc1N1CCC(C)CC1 (centres unmarked) [Compound 492, 2-((3-methyl-4-(4-methylpiperidin-1-yl)phenyl)amino)cyclohexane-1-carboxamide]
0.0001 to 0.1 µM | CCc1cc(NC2CCC(N)CC2)ccc1C(C)(C)C (centres unmarked) [Compound 329, 1-N-(4-(tert-butyl)-3-ethylphenyl)cyclohexane-1,4-diamine]
0.0001 to 0.1 µM | CC(C)C1CCN(c2ncc(NC[C@H]3C[C@H](N)C3)cn2)CC1 [Compound 448, N-(((1r,3r)-3-aminocyclobutyl)methyl)-2-(4-isopropylpiperidin-1-yl)pyrimidin-5-amine]
0.0001 to 0.1 µM | Cc1cc(N(C)C)ccc1NC[C@H]1CC[C@H](N)CC1 [Compound 393, N^1-(((1r,4r)-4-aminocyclohexyl)methyl)-N4,N4,2-trimethylbenzene-1,4-diamine]
0.0001 to 0.1 µM | CC(C)C1CCN(c2ncc(NC3CC4(CC(N)C4)C3)cn2)CC1 (centres unmarked) [Compound 358, N2-(2-(4-isopropylpiperidin-1-yl)pyrimidin-5-yl)spiro[3.3]heptane-2,6-diamine]
0.0001 to 0.1 µM | CCC(C)(C)c1ccc(NC2CC3(CC(N)C3)C2)cc1 (centres unmarked) [Compound 369, N2-(4-(tert-pentyl)phenyl)spiro[3.3]heptane-2,6-diamine]
0.0001 to 0.1 µM | COC1CCN(c2ccc(NC3CC4(CC(N)C4)C3)c(C)n2)CC1 (centres unmarked) [Compound 527]
0.0001 to 0.1 µM | CC(C)C1CCN(c2ccc(NC3CCC(N)CC3)nn2)CC1 (centres unmarked) [Compound 411, N1-(6-(4-isopropylpiperidin-1-yl)pyridazin-3-yl)cyclohexane-1,4-diamine]
0.0001 to 0.1 µM | COc1cc(N2CC(C)OC(C)C2)ccc1NC[C@H]1CC[C@H](N)CC1 (some centres unmarked) [Compound 497, N-(((1r,4r)-4-aminocyclohexyl)methyl)-4-(2,6-dimethylmorpholino)-2-methoxyaniline]
0.0001 to 0.1 µM | Cc1cc(N2CC(C)CC(C)C2)ccc1NC[C@H]1CC[C@H](N)CC1 (some centres unmarked) [Compound 418]

Same assay, conditions: Homo sapiens, HT-1080, 20 h, ferroptosis inducer RSL3, 20 hours, ferroptosis inhibitory activity, Table 3

EC50 | Structure (SMILES)
0.0001 to 0.1 µM | CC1CN(c2ncc(NC3CC4(CC(N)C4)C3)cc2F)CC(C)N1CC(F)(F)F (centres unmarked) [Compound 580, N^2-(6-(3.5-dimethyl-4-(2,2,2-trifluoroethyl)piperazin-1-yl)-5-fluoropyridin-3-yl)spiro[3.3]hept ane-2,6-diamine]
0.1 to 1 µM | Cc1nc(N2CCC(C(C)(C)O)CC2)ccc1NC1CC2(CC(N)C2)C1 (centres unmarked) [Compound 599]
0.0001 to 0.1 µM | CC1CN(c2ccc3cc(NC4CC(N)C4(C)C)ccc3c2)CCO1 (centres unmarked) [Compound 661]
0.0001 to 0.1 µM | Cc1nc(N2CCC3(CCCOC3)CC2)ccc1NC[C@H]1CC[C@H](N)CC1 [Compound 581, N-(((1r,4r)-4-aminocyclohexyl)methyl)-2-methyl-6-(2-oxa-9-azaspiro [5.5]undecan-9-yl)pyridin-3-amine]
0.0001 to 0.1 µM | Cc1cc(NC2CC(N)C2)ccc1N1CC(C)N(CC(F)(F)F)C(C)C1 (centres unmarked) [Compound 612, N1-(4-(3,5-dimethyl-4-(2,2,2-trifluoroethyl)piperazin-1-yl)-3-methylphenyl)cyclobutane-1,3-diamine]
0.0001 to 0.1 µM | CC1CN(c2ccc3cc(NC4CC5(CC(O)C5)C4)ccc3c2)CC(C)N1CC(F)(F)F (centres unmarked) [Compound 610]

Structure (SMILES) | EC50
Cc1nc(N2CC(C)N(CC(F)(F)F)C(C)C2)ccc1NC1CC2CCC(C1)N2 (centres unmarked) [Compound 643, N-(6-(3,5-dimethyl-4-(2,2,2-trifluoroethyl)piperazin-1-yl)-2-methylpyridin-3-yl)-8-azabicyclo[3.2.1]octan-3-amine] | 0.0001 to 0.1 µM

Same assay, conditions: Homo sapiens, ferroptosis inducer RSL3, 20 hours, ferroptosis inhibitory activity, Table 2

Structure (SMILES) | EC50
NC1CCC(Nc2ccc(C3CCC3)cc2)CC1 (centres unmarked) [Compound 318A, 1-N-(4-cyclobutylphenyl)cyclohexane-1,4-diamine] | 0.0001 to 0.1 µM
CCC(C)(C)c1ccc(NC2CCC(N)CC2)cc1 (single isomer, unassigned) [Compound 232A, N1-(4-(tert-pentyl)phenyl)cyclohexane-1,4-diamine] | 0.0001 to 0.1 µM

Same assay, conditions: ferroptosis inducer RSL3, 20 hours, ferroptosis inhibitory activity, Table 2

EC50 | Structure (SMILES)
0.1 to 1 µM | CC(C)(C)c1ccc(NCC2CC(N)C2)cc1 (single isomer, unassigned) [Compound 335A, N-((3-aminocyclobutyl)methyl)-4-(tert-butyl)aniline]
0.1 to 1 µM | NCC1CCC(Nc2ccccc2)CC1 (single isomer, unassigned) [Compound 92B, N-(4-(aminomethyl)cyclohexyl)aniline]
